For one experiment, the system named is microorganisms. The experiment in a line: Peptides having multiple activities (targeting/binding, antimicrobial, growth or phenotype altering). From the text: In certain embodiments, peptides described herein can have multiple activities. Thus for example, a peptide can have both binding/targeting activity and antimicrobial activity. Such peptides can be used, e.g., in a chimeric construct, for any or all of these properties. Thus, for example, a peptide designated “B” in Table 8 can be used as a targeting peptide. If it is also designated G or M it can also be used for antimicrobial activity.

For another experiment, the system named is E. faecalis. The experiment in a line: Kill or inhibit growth/proliferation; morphology, biofilm and growth disruption (Tables 5, 6). Further: test concentration or dose not given here. The experiment is classed as cell-based, Enterococcus faecalis. Details: key: A: Peptide aggregates; B: Less hyphal formation; Clumps; Diffuse clumps and small polyps; F: Diffuse growth; H: Thin; I: Growth inhibition; Microcolony formation; Rippled; Small polyps; Thick; W: Halo formation on top, microlonies on bottom.

In experiment [1] the test system is microorganisms (e.g., bacteria, yeasts, fungi). The experiment in a line: Targeting peptide binding to target microorganisms (Table 3). The settings on record: preferably 1x PBS; for Target(s) (microorganisms bound by the targeting peptide): peptide binding in aqueous buffers varied by peptide solubility; for Target(s): microorganism(s) the targeting peptide binds.

The next experiment deals with S. pneumoniae. The experiment in a line: Kill or inhibit growth/proliferation; morphology, biofilm and growth disruption (Tables 5, 6). Further: test concentration or dose not given here. Details: key: A: Peptide aggregates; B: Less hyphal formation; Clumps; Diffuse clumps and small polyps; F: Diffuse growth; H: Thin; I: Growth inhibition; Microcolony formation; Rippled; Small polyps; Thick; W: Halo formation on top, microlonies on bottom. The experiment is classed as cell-based, Streptococcus pneumoniae.

A further experiment has as its system MRSA. The description is as above. The experiment is classed as cell-based, Methicillin-resistant Staphylococcus aureus. Details: key: A: Peptide aggregates; B: Less hyphal formation; Clumps; Diffuse clumps and small polyps; F: Diffuse growth; H: Thin; I: Growth inhibition; Microcolony formation; Rippled; Small polyps; Thick; W: Halo formation on top, microlonies on bottom.

The subject of the next experiment is S. epidermidis. The experiment is described as above. Type of experiment: cell-based, Staphylococcus epidermidis. Details: key: A: Peptide aggregates; B: Less hyphal formation; Clumps; Diffuse clumps and small polyps; F: Diffuse growth; H: Thin; I: Growth inhibition; Microcolony formation; Rippled; Small polyps; Thick; W: Halo formation on top, microlonies on bottom.

The mark [2] stands for this setting: peptide binding conducted in aqueous buffers varied by peptide solubility.

Entries after “also recorded” stand apart in the source; their conditions may differ.
Wherever Organism, effect (morphology, biofilm and growth disruption) is given: test concentration or dose not given here.
Wherever Organism, effect is given: test concentration or dose not given here.

Take “PF-602: peptide having multiple activities (LEKEKKEYIEKLFKTK; Peptide with targeting and/or antimicrobial activity)”: the Activities result in the experiment with microorganisms is “G B”. The “Organism, effect” value in the experiment on E. faecalis is given as “E. faecalis (A)”. In experiment [1], the “Target(s) (microorganisms bound by the targeting peptide)” value is listed as “P. mirabilis; also recorded: C. jeikeium”.

Turning to “PF-594: peptide having multiple activities (IVSAIV; Peptide with targeting and/or antimicrobial activity)”, in the experiment on microorganisms, the Activities entry is “G B”. Besides, the “Organism, effect” value in the experiment on E. faecalis was “E. faecalis (C)”. Further, the “Target(s)” value in experiment [1] (setting [2]) is reported as “C. jeikeium”.

Regarding “PF-695 (chain 1 ALSVMLGNIPLVVPNANQL; chain 2 ALSVMLGNIPLVVPNANQL; Peptide with targeting and/or antimicrobial activity)”, the “Organism, effect (morphology, biofilm and growth disruption)” value is “S. pneumoniae (C)” with S. pneumoniae, “MRSA (R)” in the experiment on MRSA and “E. faecalis (R)” in the experiment on E. faecalis. In experiment [1], the “Target(s) (microorganisms bound by the targeting peptide)” value is “Mycobacteria spp”.

Consider “PF-450: peptide having multiple activities (chain 1 HRNLIILQRTIFI; chain 2 HRNLIILQRTIFI; Peptide with targeting and/or antimicrobial activity)”, for which the “Organism, effect” value in the experiment on S. pneumoniae is “S. pneumoniae (C)”; in the experiment with MRSA, “MRSA (C)”; in the experiment on E. faecalis, “E. faecalis (C)”. The Activities result with microorganisms was “G B”.

As to “PF-593: peptide having multiple activities (MEISTLKKEKLHVKDELSQYLANYKK; Peptide with targeting and/or antimicrobial activity)”, the Activities entry in the experiment on microorganisms is on record as “G B”. Moreover, the “Organism, effect” value in the experiment with E. faecalis is “E. faecalis (A)”. Besides, the “Target(s)” value in experiment [1] (setting [2]) is listed as “C. jeikeium”.

Consider “PF-394: peptide having multiple activities (chain 1 VLKEECYQKN; chain 2 VLKEECYQKN; Peptide with targeting and/or antimicrobial activity)”, for which the results for the “Organism, effect” value in the experiment with MRSA and in the experiment on E. faecalis were “MRSA (C)” and “E. faecalis (A)”, respectively. Also, the Activities entry in the experiment with microorganisms is “G B”. In experiment [1] (setting [2]), the “Target(s)” value is “S. epidermidis and MRSA and C. jejuni”.

Regarding “PF-760: peptide having multiple activities (DHITLDDYEIHDGFNFELYYG; Peptide with targeting and/or antimicrobial activity)”, the “Organism, effect (morphology, biofilm and growth disruption)” value is on record as “S. pneumoniae (C)” in the experiment with S. pneumoniae, “MRSA (M)” in the experiment with MRSA and “S. epidermidis (M)” in the experiment with S. epidermidis. The Activities result with microorganisms is on record as “G B”. For the same substance, the “Target(s) (microorganisms bound by the targeting peptide)” value in experiment [1] is “S. epidermidis; also recorded: M. luteus”.

For “PF-618 (KLNTLNKKDNPSLNDQDKNAVLNLLALAK; Peptide with targeting and/or antimicrobial activity)”, the results for the “Organism, effect” value with S. pneumoniae and in the experiment on E. faecalis were “S. pneumoniae (I)” and “E. faecalis (H)”, respectively.

On to “PF-604: peptide having multiple activities (LMEQVEV; Peptide with targeting and/or antimicrobial activity)”, for which the Activities entry in the experiment with microorganisms is “G B”. In addition, in the experiment with E. faecalis, the “Organism, effect” value was “E. faecalis (A)”. Moreover, the “Target(s) (microorganisms bound by the targeting peptide)” value in experiment [1] is listed as “S. epidermidis; also recorded: C. albicans; also recorded: C. jeikeium”.

For the substance “PF-417: peptide having multiple activities (DSYFRS; Peptide with targeting and/or antimicrobial activity)”, the “Organism, effect” value is “S. pneumoniae (M)” in the experiment on S. pneumoniae, “MRSA (M)” with MRSA and “S. epidermidis (M)” in the experiment with S. epidermidis. Further, the Activities result in the experiment with microorganisms was “G B”. Further, the “Target(s)” value in experiment [1] (setting [2]) was “S. epidermidis; also recorded: C. jeikeium; also recorded: C. jejuni”.

With “PF-582 (NLKTIEKECPFCNNKMDIKLKD; Peptide with targeting and/or antimicrobial activity)”, the “Organism, effect” value in the experiment with E. faecalis was “E. faecalis (A)”.

For DEIKVSDEEIEKFIKENNL [PF-597], in the experiment on microorganisms, the Activities result was “G B”. Besides, the “Organism, effect” value with E. faecalis is reported as “E. faecalis (A)”. In experiment [1], the “Target(s) (microorganisms bound by the targeting peptide)” value is on record as “P. mirabilis”.

As to “PF-484: peptide having multiple activities (chain 1 HKKDIRKQVFKN; chain 2 HKKDIRKQVFKN; Peptide with targeting and/or antimicrobial activity)”, the Activities result in the experiment on microorganisms is listed as “G B”. Besides, the “Organism, effect” value in the experiment on E. faecalis is “E. faecalis (A)”. The “Target(s)” value in experiment [1] (setting [2]) is “S. epidermidis; also recorded: M. luteus; also recorded: P. mirabilis; also recorded: E. coli; also recorded: E. faecalis; also recorded: C. jeikeium; also recorded: C. jejuni”.

Turning to “PF-631: peptide having multiple activities (chain 1 LIIYFSKTGNTARATRQI; chain 2 LIIYFSKTGNTARATRQI; Peptide with targeting and/or antimicrobial activity)”, the “Organism, effect” value in the experiment with S. pneumoniae is recorded as “S. pneumoniae (I)”; with E. faecalis, “E. faecalis (H)”. In addition, the Activities entry with microorganisms is “G B”. Moreover, the “Target(s) (microorganisms bound by the targeting peptide)” value in experiment [1] is “S. epidermidis and P. aeruginosa and C. albicans and MRSA and S. pneumoniae and E. faecalis and C. jeikeium”.

Take “PF-621: peptide having multiple activities (PPSSFLV; Peptide with targeting and/or antimicrobial activity)”: the “Organism, effect” value is listed as “S. pneumoniae (I)” in the experiment on S. pneumoniae and “E. faecalis (H)” in the experiment with E. faecalis. In the experiment with microorganisms, the Activities result was “G B”. For the same substance, the “Target(s) (microorganisms bound by the targeting peptide)” value in experiment [1] is “S. epidermidis; also recorded: C. albicans”.

As to “PF-675 (chain 1 EIIPISPTRRCEMHTMSSAEYRGL; chain 2 EIIPISPTRRCEMHTMSSAEYRGL; Peptide with targeting and/or antimicrobial activity)”, the “Organism, effect (morphology, biofilm and growth disruption)” value is given as “S. pneumoniae (C)” with S. pneumoniae and “E. faecalis (R)” in the experiment with E. faecalis. In addition, in experiment [1], the “Target(s) (microorganisms bound by the targeting peptide)” value is “Mycobacteria spp”.

For “PF-683 (chain 1 LWPVA; chain 2 LWPVA; Peptide with targeting and/or antimicrobial activity)”, the “Organism, effect (morphology, biofilm and growth disruption)” value in the experiment with S. pneumoniae was “S. pneumoniae (H)”; with MRSA, “MRSA (R)”; in the experiment with S. epidermidis, “S. epidermidis (R)”. Moreover, in experiment [1], the “Target(s) (microorganisms bound by the targeting peptide)” value is listed as “Mycobacteria spp”.

Consider “PF-430: peptide having multiple activities (AVVCGYLAYTATS; Peptide with targeting and/or antimicrobial activity)”, for which the “Organism, effect” value is reported as “S. pneumoniae (M)” in the experiment with S. pneumoniae, “MRSA (M)” in the experiment on MRSA and “S. epidermidis (M)” in the experiment with S. epidermidis. Moreover, the Activities result with microorganisms was “G B”. Also, in experiment [1] (setting [2]), the “Target(s)” value is recorded as “S. epidermidis; also recorded: M. luteus; also recorded: E. coli; also recorded: S. pneumoniae; also recorded: E. faecalis; also recorded: C. jeikeium; also recorded: C. jejuni”.

Consider “PF-643 (chain 1 VRCRL; chain 2 VRCRL; Peptide with targeting and/or antimicrobial activity)”, for which the entries for the “Organism, effect” value in the experiment on S. pneumoniae, with MRSA and with E. faecalis were “S. pneumoniae (R)”, “MRSA (C)” and “E. faecalis (R)”, respectively. Besides, in experiment [1], the “Target(s) (microorganisms bound by the targeting peptide)” value is given as “Mycobacteria spp”.

For the substance “PF-074: peptide having multiple activities (RDIHPIYFMTKD; Peptide with targeting and/or antimicrobial activity)”, the “Organism, effect” value in the experiment on MRSA is “MRSA (M)”; in the experiment on S. epidermidis, “S. epidermidis (D)”. Moreover, the Activities entry in the experiment on microorganisms is “G B”. The “Target(s)” value in experiment [1] (binding in aqueous buffers depending on peptide solubility) was “S. epidermidis and M. luteus and MRSA”.

As for “PF-588: peptide having multiple activities (ESVEAIKAKAIK; Peptide with targeting and/or antimicrobial activity)”, the Activities entry in the experiment with microorganisms was “G B”. Besides, the “Organism, effect” value with E. faecalis is on record as “E. faecalis (A)”. Besides, the “Target(s)” value in experiment [1] (setting [2]) is on record as “S. epidermidis; also recorded: E. coli; also recorded: C. albicans; also recorded: E. faecalis; also recorded: C. jeikeium; also recorded: C. jejuni”.

As to “PF-649 (chain 1 CPRYPFVDVGPAGPWRARWRVGS; chain 2 CPRYPFVDVGPAGPWRARWRVGS; Peptide with targeting and/or antimicrobial activity)”, in the experiment with E. faecalis, the “Organism, effect (morphology, biofilm and growth disruption)” value is given as “E. faecalis (R)”. Besides, the “Target(s) (microorganisms bound by the targeting peptide)” value in experiment [1] was “Mycobacteria spp”.

These data come from patent US20110039762A1, “TARGETED ANTIMICROBIAL MOIETIES” (C3 JIAN, INC., priority 2009, published 2011).
